Four molecules from publication PMC4721923 (PLoS ONE, 2015) can be followed below.

One data set deals with Jurkat cells. The experiment in a line: Detection of apoptosis (annexin V/propidium iodide assay). The class given is cell-based, human. The protocol: Apoptosis was determined by incubating proliferating Jurkat cells with medium containing 1, 2, 4 or 5 at a concentration of 10 μM or 0.1% of DMSO (untreated control). After different periods of incubation (6, 24, 48 hours), samples were analyzed using the Annexin V-FITC apoptosis detection kit l (BD Biosciences, Heidelberg, Germany) according to the manufacturer’s protocol using 10^6 cells/mL. Cells were analyzed using a FACSCalibur flow cytometer (BD Biosciences, Heidelberg, Germany). The compensation was performed for each experiment with annexin V-FITC (530/30 BP filter) and propidium iodide (585/42 BP filter), respectively. At least 1 · 10^4 events were registered per sample and debris as well as cell aggregates were excluded by forward (FSC) versus side scatter (SSC) gates. Raw data were analyzed using FlowJo V10 software (Treestar Inc., Ashland, OR, USA).

The target of another data set is T1, OCT1 (Homo sapiens, UniProt O15245).
T1 construct: containing the full length SLC22A1 cDNA (NM_003057) encoding the human OCT1 protein; expressed in transfected cells
T1 sequence (O15245 1-554): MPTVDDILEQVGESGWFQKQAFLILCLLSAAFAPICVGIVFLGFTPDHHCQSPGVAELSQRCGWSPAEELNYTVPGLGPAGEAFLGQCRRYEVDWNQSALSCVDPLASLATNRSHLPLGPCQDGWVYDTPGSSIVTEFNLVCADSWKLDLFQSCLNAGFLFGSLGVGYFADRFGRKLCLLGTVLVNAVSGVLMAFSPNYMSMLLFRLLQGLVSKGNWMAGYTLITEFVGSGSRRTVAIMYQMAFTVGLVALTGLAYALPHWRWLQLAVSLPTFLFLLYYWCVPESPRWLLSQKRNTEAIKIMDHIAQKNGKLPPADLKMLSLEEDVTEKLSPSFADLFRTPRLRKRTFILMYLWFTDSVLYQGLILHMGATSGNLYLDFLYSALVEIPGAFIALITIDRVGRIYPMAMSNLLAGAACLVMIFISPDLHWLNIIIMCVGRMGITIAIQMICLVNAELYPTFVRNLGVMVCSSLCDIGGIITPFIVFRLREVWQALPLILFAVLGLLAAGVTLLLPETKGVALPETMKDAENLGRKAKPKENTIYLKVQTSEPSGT
The experiment in a line: Flow cytometric ASP+-uptake inhibition, HEK-OCT1. The class given is cell-based. To be noted: for IC50: IC50, inhibition of ASP+-uptake, HEK-OCT1, 1 μM ASP+, ± SEM (N = 3). The protocol:
(§1) The previously described fluorescent substrate of organic cation transporters, 4-(4-dimethylaminostyryl)-N-methylpyridinium (ASP^+), was used to determine the function of OCT1 and OCT3 by flow cytometry in the absence and the presence of bendamustine and selected bendamustine esters. HEK293 cells expressing the transporter of interest were trypsinized and washed twice with PBS, prior to re-suspension of 0.5 · 10^6 cells in 500 μL of PBS containing 2% (v/v) FCS. The cells were incubated with ASP^+ (100 μM stock solution in PBS containing 10% DMSO) for 5 minutes, allowing for cellular accumulation, and subsequently analyzed with a FACSCalibur flow cytometer. ASP^+ was excited at 488 nm and the fluorescence was measured using a 530/30 nm and a 585/42 band-pass filter. At least 1 · 10^4 single cells were analyzed by appropriate FSC/SSC gating.
(§2) The cells were pre-incubated with the respective test compound at different concentrations at room temperature for 10 minutes. Afterwards, ASP^+ was added to a final concentration of 1 μM, and the samples were incubated at 37°C in the dark for 5 minutes. Subsequently, the cells were washed, re-suspended in ice-cold PBS/FCS and stored on ice in the dark until measurement.
(§3) The normalized mean fluorescence intensities of the OCT expressing cells, set to 100% in the absence of an inhibitor, were calculated by subtracting the mean fluorescence intensity of unspecific ASP^+ uptake into HEK-Co control cells. The normalized fluorescence intensities in the presence of an inhibitor were plotted against the logarithm of the concentrations of the test compounds to calculate IC50 values. The “log (inhibitor) vs. normalized response-variable slope” equation of GraphPad Prism 5.01 was used for this purpose.

Another data set concerns the target T2, OCT3 (Homo sapiens, UniProt O75751).
T2 construct: expressed in transfected cells; host or cells: HEK293 (HEK-OCT3)
T2 sequence (O75751 1-556): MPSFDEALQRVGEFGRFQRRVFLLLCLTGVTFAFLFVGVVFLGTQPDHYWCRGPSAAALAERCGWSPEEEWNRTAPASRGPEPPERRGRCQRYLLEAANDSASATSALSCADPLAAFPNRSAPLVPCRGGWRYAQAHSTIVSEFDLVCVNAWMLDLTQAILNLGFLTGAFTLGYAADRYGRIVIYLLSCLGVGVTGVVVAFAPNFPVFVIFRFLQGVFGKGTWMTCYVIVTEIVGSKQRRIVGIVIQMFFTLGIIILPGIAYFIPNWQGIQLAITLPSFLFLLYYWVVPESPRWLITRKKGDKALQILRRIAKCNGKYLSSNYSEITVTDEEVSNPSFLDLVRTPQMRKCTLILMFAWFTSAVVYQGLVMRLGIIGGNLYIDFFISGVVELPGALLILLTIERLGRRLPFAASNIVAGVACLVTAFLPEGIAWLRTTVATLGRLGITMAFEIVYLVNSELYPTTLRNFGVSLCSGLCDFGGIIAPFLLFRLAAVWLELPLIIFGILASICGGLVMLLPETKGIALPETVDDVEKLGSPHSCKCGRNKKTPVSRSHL
The experiment in a line: Flow cytometric ASP+-uptake inhibition, HEK-OCT3. The class given is cell-based. To be noted: for potency relative to TPA at OCT3: from IC50 values, p ≤ 0.05. The procedure:
as §1, §2, §3
Background: A flow cytometer gives signals particle by particle.

The test system of the next data set is HT-29 cells. The experiment in a line: Quantification of cell-associated compound by HPLC, HT-29. To be noted: 30 μM, 10 minutes; for amount of cell-associated compound: mean ± SEM. The class given is cell-based, human. The procedure:
Accumulation of bendamustine and selected bendamustine esters by HT-29 and NCI-H460 cells was determined by HPLC. For this purpose, 1.5 · 10^6 cells/well were seeded into 6-well plates (Sarstedt, Nümbrecht, Germany). After two days of cultivation, the cells were incubated in PBS containing 30 μM of 1, 2, 4 or 5 and 200 μM of umbelliferone as internal standard at 37°C for 10 minutes. After removing the medium, the cells were washed three times with PBS. Untreated cells were detached with trypsin/EDTA and counted. The treated cells were harvested by adding 200 μL of ice-cold perchloric acid (1 M) and scraping. Subsequently, the samples were vortexed and sonicated (Branson 3200 ultrasonic cleaner; Branson, Danbury, USA) for 10 minutes. After 5 minutes of centrifugation (13000 g, 4°C), the supernatants were filtered (0.2 μm Phenex; Phenomenex, Aschaffenburg, Germany) and directly analyzed by HPLC with fluorescence detection according to a recently reported validated procedure. The normalization of the measured concentration to the cell count allowed for a calculation of the cell-associated amount of the respective test compound. Additionally, the ratio of cell-associated substance compared to the applied concentration (30 μM) was calculated based on an average cell volume of 3 pL.

The term IC50 denotes the point on the concentration scale where inhibition reaches its midpoint. A high value points to weaker potency. Regarding `Cn1c(CCCC(=O)OCCN2CCCC2)nc2cc(N(CCCl)CCCl)ccc21` [Compound 5], the “fraction of early apoptotic cells” value with Jurkat cells (10 μM, 6 hours) is ~ 2.5%. Besides, in the data set on Jurkat cells (10 μM, 24 hours), the “cells either early apoptotic or secondary necrotic” value was “Approximately 50%”, the “fraction of early apoptotic cells” value was found to be 20% and the “fraction of secondary necrotic cells” value came out at 30%. The “fraction of secondary necrotic cells” value with Jurkat cells (10 μM, 48 hours) was found to be 70%. Further, the viability at 10 µM in the data set with Jurkat cells (Homo sapiens, Jurkat, 48 h, two days after treatment, read-out: viable cells) is roughly 15%. Moreover, the IC50 against OCT1 was 0.35 ± 0.03 µM. Besides, the “potency factor relative to TPA at OCT1” value on OCT1 (from IC50 values) was “approximately 20”. Moreover, at OCT3, the midpoint of inhibition, the IC50, lay at 3.41 ± 0.16 µM and the “potency relative to TPA at OCT3” value is listed as “approximately four”. For the same molecule, in the data set with HT-29 cells, the “cellular enrichment relative to bendamustine” value is given as “approximately 70 fold” and the “amount of cell-associated compound” value worked out at 5.01 ± 0.34 nmol/10^6 cells.

Usually inhibition stands for how much of the control response was suppressed. On to `Cn1c(CCCC(=O)O)nc2cc(N(CCCl)CCCl)ccc21` [Compound 1, bendamustine, reference compound], for which the “effect on apoptosis compared to the control cells” value in the data set on Jurkat cells (10 μM, regardless of the period of incubation (6, 24, 48 hours)) was “no effect”. Besides, the IC50 against OCT1 and at OCT3 was greater than 200 µM throughout. This molecule also came in with an inhibition at 5 min, 200 µM on OCT1 (human, 200 μM (highest examined concentration)) of 35%. On OCT3 (read-out: inhibition of OCT3), the inhibition at 200 µM turned out to be 37%. The “amount of cell-associated compound” value in the data set with HT-29 cells is 0.07 ± 0.011 nmol/10^6 cells.

For the molecule `COC(=O)CCCc1nc2cc(N(CCCl)CCCl)ccc2n1C` [Compound 2], the “fraction of early apoptotic cells” value in the data set on Jurkat cells (10 μM, 24 hours) is recorded as “approximately 10%”. Further, in the data set on Jurkat cells (10 μM, 48 hours), the “fraction of early apoptotic cells” value is given as 15% and the “fraction of secondary necrotic cells” value was 20–25%. At OCT1, this molecule displayed an IC50 of 11.3 ± 1.9 µM. On OCT3, the IC50 turned out to be 5.1 ± 1.4 µM and the “potency relative to TPA at OCT3” value is recorded as “approximately four”. The “amount of cell-associated compound” value in the data set with HT-29 cells came out at 2.05 ± 0.39 nmol/10^6 cells.

Regarding `Cn1c(CCCC(=O)OCCN2CCOCC2)nc2cc(N(CCCl)CCCl)ccc21` [Compound 4], the “fraction of early apoptotic cells” value with Jurkat cells (10 μM, 24 hours) is “approximately 10%”. Besides, in the data set with Jurkat cells (10 μM, 48 hours), the “fraction of early apoptotic cells” value is recorded as 15% and the “fraction of secondary necrotic cells” value is listed as 20–25%. The molecule further showed a concentration for half-maximal inhibition (IC50) against OCT1 of 10.1 ± 2.5 µM. Also, at OCT3, the IC50 stood at 5.1 ± 0.02 µM and the “potency relative to TPA at OCT3” value is on record as “approximately four”. The “amount of cell-associated compound” value with HT-29 cells was 1.59 ± 0.23 nmol/10^6 cells.
